Results: US5576188A, “Immunological detection of metolachlor” (Ciba-Geigy Corporation, priority 1990, dated 1996)

Key:
MAb 4082-25-4 [1] = test: Indirect competitive ELISA (assay A), inhibition of MAb 4082-25-4 binding / cross-reactivity; design: species or system BALB/c mouse; details: for I50 (inhibitor concentration for 50% inhibition in the competitive ELISA): MAb 4082-25-4; for Cross-reactivity (metolachlor concentration for 50% inhibition / concentration of metolachlor analogue for 50% inhibition × 100): MAb 4082-25-4, relative to metolachlor
Text: The percentage cross-reactivity is to be defined within the scope of this invention by the following relation:
(Metolachlor concentration for 50% inhibition/concentration of the metolachlor analogues for 50% inhibition)×100.
A 50% inhibition can be determined, for example, with the aid of a competitive ELISA assay (compare Example 8). This then corresponds, for example, to that antigen concentration which leads to 50% inhibition of antibody binding to the carrier-bound antigen.
8.1: Indirect ELISA (assay A)
Metolachlor is detected by means of a two-stage competitive ELISA test using an enzyme-labelled second antibody.
BSA-conjugated hapten in a 50 mM sodium carbonate buffer (pH 9.6) (200 ng of BSA-conjugated hapten/100 μl of sodium carbonate buffer) is initially adsorbed onto microtitre plates (for example Dynatech, type M 129A) and incubated at a temperature of 4° C. overnight. It has emerged that the sensitivity of the assay can be increased almost 5-fold by reducing the conjugate[BSA/hapten] concentration from 200 ng/100 μl of sodium carbonate buffer to 50 ng/100 μl of sodium carbonate buffer because the coating is improved.
The plates are then washed 5× with PBS buffer which is supplemented with 0.1% (v/v) polysorbate 20 (Tween 20) (PBS-Tween).
The remaining free binding sites on the solid support material are then blocked by adding BSA in the form of a 1% solution. After incubation at 22° C. for two hours the plates are again washed with PBS-Tween (0.1%).
50 μl of the previously purified monoclonal antibodies (0.2 μg/ml) or else of the supernatant of the cell clones (in a dilution of 1:15) are incubated a) with 950 μl of a standard solution which contains an increasing content of metolachlor or metolachlor analogue, b) with metolachlor-containing water samples or c) metolachlor-containing soil extracts. (PBS-Tween is used for all dilutions).
After an incubation time of 1 hour at room temperature (22° C.), 200 μl of the antigen/antibody mixture are added to each well of the microtitre plate, and the entire mixture is incubated for a further hour. The wells are then washed 5× with PBS-Tween (0.1%) and charged with 100 μl/well of goat anti-mouse IgG antibody which is conjugated to alkaline phosphatase (dilution 1:1500) and incubated for a period of 1.5 hours.
After renewed washing, 150 μl/well of the substrate p-nitrophenyl phosphate which is dissolved in 1 mg/ml diethanolamine buffer (1 mM, pH 9.8, supplemented with 0.5 mM MgCl2 ×6H2 O) are added to the wells.
After an incubation time of 2 hours at a temperature of 22° C. it is possible to observe a colour change which is proportional to the amount of antibody which has reacted with the antigen bound to the solid phase. The intensity of the colour reaction which has occurred is determined at a wavelength of 405 nm. The dilutions of the individual samples are chosen so that absorptions in a range between 0.3 and 0.5 are obtained without addition of an inhibitor (Bo). Values of R≤0.005 are found for the controls (without antibody and with undetectable amounts of antigen). All the samples are determined in triplicate.
(§1) For the determination of the amount of metolachlor contained in a sample, initially a calibration plot is constructed (FIG. 1), where B/Bo×100is plotted against the concentration of inhibitor. (Bo represents the absorbance measured without addition of a metolachlor inhibitor to the antibody, and B means the absorbance measured with various concentrations of metolachlor inhibitor). […] The I50 value is calculated using an ENZFITTER (Leatherbarrow, Elsevier-Biosoft) plot calculation program specifically adapted to the present circumstances and based on a logistic plot embracing 4 parameters (Raab GM, 1983). The quantitative determination of metolachlor in samples of soil or water within the scope of the ELISA is also carried out using the ENZFITTER program, with the fitting of the plot being based on standards included on each microtitre plate. […]

MAb 4082-25-4 [2] = test: Direct competitive ELISA (assay B); assay type: binding, BALB/c mouse
Protocol: 8.2: Direct ELISA (assay B)
Microtitre plates [Dynatech M 129A] are coated with monoclonal antibodies [for example MAb 4082-25-4; 75 ng/100 μl of 50 mM sodium carbonate buffer, pH 9.6] and incubated at a temperature of 4° C. overnight. The plates are then washed 5 times with 0.1% (v/v) PBS-Tween and subsequently incubated with PBS supplemented with 1% (w/v) BSA for 2 hours in order to block the binding sites which are still free. After renewed washing, 150 μl of a standard solution are added to each of the wells of the microtitre plates which contain increasing amounts of metolachlor in 0.1% (v/v) PBS-Tween. This is followed by incubation at a temperature of 22° C. for 1 hour. […] After incubation at 22° C. in the dark for 2 hours, the absorption of 405 nm is determined.
as §1, with “1983).” for “1983). The quantitative determination of metolachlor in samples of soil or water within the scope of the ELISA is also carried out using the ENZFITTER program, with the fitting of the plot being based on standards included on each microtitre plate.”

Row | I50 (inhibitor concentration for 50% inhibition in the competitive ELISA) (MAb 4082-25-4 [1]) [ng/mL] | Cross-reactivity (metolachlor concentration for 50% inhibition / concentration of metolachlor analogue for 50% inhibition × 100) (MAb 4082-25-4 [1]) [%] | Compound | I50 (MAb 4082-25-4 [2]) [ng/mL]
1 | > 1000 | < 0.1 | COCC(=O)N(c1c(C)cccc1CO)C(C)C(=O)OC (stereo not drawn) [M] | –
2 | > 1000 | < 0.1 | CCc1cccc(C)c1NC(C)CO (stereo not drawn) [E] | –
3 | > 1000 | < 0.1 | CCc1cccc(C)c1N(C(=O)CO)C(C)CO (stereo not drawn) [F] | –
4 | > 1000 | < 0.1 | COC(=O)C(C)Nc1c(C)cccc1C (stereo not drawn) [Compound I] | –
5 | 43 | 1.4 | CCc1cccc(C)c1N(C(=O)CO)C(C)COC (stereo not drawn) [A] | –
6 | > 1000 | < 0.1 | COCC(=O)Nc1c(C)cccc1C [J] | –
7 | > 1000 | < 0.1 | Cc1cccc(C)c1NC(C)C(=O)O (stereo not drawn) [K] | –
8 | > 1000 | < 0.1 | Cc1cccc(C)c1N(C(=O)CO)C(C)C(=O)O (stereo not drawn) [H] | –
9 | > 1000 | < 0.1 | CCc1cccc(C)c1NC(=O)CO [D] | –
10 | > 1000 | < 0.1 | CCc1cccc(C)c1NC(C)COC (stereo not drawn) [B] | –
11 | > 1000 | < 0.1 | COCC(=O)N(c1c(C)cccc1C)C(C)C(=O)O (stereo not drawn) [G] | –

Row | Compound | I50 (inhibitor concentration for 50% inhibition in the competitive ELISA) (MAb 4082-25-4 [1]) [ng/mL] | Cross-reactivity (metolachlor concentration for 50% inhibition / concentration of metolachlor analogue for 50% inhibition × 100) (MAb 4082-25-4 [1]) [%] | I50 (MAb 4082-25-4 [2]) [ng/mL]
12 | COCC(=O)N(c1c(C)cccc1C)C(C)C(=O)OC (stereo not drawn) [L] | > 1000 | – | –
13 | COCC(=O)N(c1c(C)cccc1C)C(C)C(=O)OC (stereo not drawn) [matalaxyl] | – | < 0.1 | –
14 | CCc1cccc(CC)c1N(COC)C(=O)CCl [Alachlor] | > 1000 | < 0.1 | –
15 | COC(=O)C(C)N(C(=O)c1ccco1)c1c(C)cccc1C (stereo not drawn) [N] | > 1000 | – | –
16 | CCc1cccc(C)c1N(C(=O)CCl)C(C)COC (stereo not drawn) [Metolachlor, 2-chloro-6'-ethyl-N-(2-methoxy-1-methyl-ethyl)acet-O-toluidide] | 0.6 | 100 | 1.0
17 | COC(=O)C(C)N(C(=O)c1ccco1)c1c(C)cccc1C (stereo not drawn) [furalaxyl] | – | < 0.1 | –
18 | CCc1cccc(C)c1NC(=O)CCl [C] | > 1000 | < 0.1 | –
